Assay results reported in US6730705B1, “Alkoximino acetic acid amides” (Bayer Aktiengesellschaft, priority 1995, dated 2004).

Experiment: log p (physical constant, Table 7)
Details: E/Z isomer mixture; first of two printed values (x/y)

Compound | log p
CON=C(C(=O)NCCc1ccc(OC)c(OC)c1)c1ccc(C)cc1 (mixture of isomers) [Compound 41] | 2.53
CCON=C(C(=O)NCCc1ccc(OC)c(OC)c1)c1ccc(Cl)cc1 (mixture of isomers) [Compound 77] | 3.07

Same assay, conditions: E/Z isomer mixture; second of two printed values (x/y)

Compound | log p
CON=C(C(=O)NCCc1ccc(OC)c(OC)c1)c1ccc(C)cc1 (mixture of isomers) [Compound 41] | 2.77
CCON=C(C(=O)NCCc1ccc(OC)c(OC)c1)c1ccc(Cl)cc1 (mixture of isomers) [Compound 77] | 3.34

Same assay, conditions: physical constant of Table 7

Compound | log p
CO/N=C(/C(=O)NCCc1ccc(OC)c(OC)c1)c1ccc(Cl)cc1 [Compound 24] | log p: 2.99
CON=C(C(=O)NCCc1ccc(OC)c(OC)c1)c1ccc(C)s1 [Compound 73] | log p: 2.46
CCc1ccc(/C(=N\OC)C(=O)NCCc2ccc(OC)c(OC)c2)cc1 [Compound 81] | log p: 2.86
CCOc1ccc(/C(=N\OC)C(=O)NCCc2ccc(OC)c(OC)c2)cc1 [Compound 82] | log p: 2.59
CO/N=C(\C(=O)NCCc1ccc(OC)c(OC)c1)c1ccc(C)c(C)c1 [Compound 91] | log p: 3.00
CO/N=C(/C(=O)NCCc1ccc(OC)c(OC)c1)c1ccc(Br)cc1 [Compound 96] | log p: 2.82
CO/N=C(/C(=O)NCCc1ccc(OC)c(OC)c1)c1ccc(F)cc1 [Compound 98] | log p: 2.39
CO/N=C(/C(=O)NCCc1ccc(OC)c(OC)c1)c1ccc(C)c(C)c1 [Compound 99] | log p: 2.75
CCO/N=C(/C(=O)NCCc1ccc(OC)c(OC)c1)c1ccc(C)cc1 [Compound 110] | log p: 2.85
CON=C(C(=O)NCCc1ccc(OC)c(OC)c1)c1ccc2c(c1)CCC2 [Compound 114] | log p: 3.01
CON=C(C(=O)NCCc1ccc(OC)c(OC)c1)c1ccc2c(c1)CCCC2 [Compound 117] | log p: 3.44
CCCc1ccc(C(=NOC)C(=O)NCCc2ccc(OC)c(OC)c2)cc1 [Compound 124] | log p: 3.25
CON=C(C(=O)NCCc1ccc(OC)c(OC)c1)c1ccc(OCc2ccccc2)cc1 [Compound 126] | log p: 3.49
CCc1ccc(C(=NOC)C(=O)NCCc2ccc(OC)c(OC)c2)s1 [Compound 127] | log p: 3.22
CCCCc1ccc(C(=NOC)C(=O)NCCc2ccc(OC)c(OC)c2)cc1 [Compound 132] | log p: 3.62
CCc1ccc(C(=NOC)C(=O)NCCc2ccc(OC)c(OC)c2)s1 [Compound 143] | log p: 2.77
CCON=C(C(=O)NCCc1ccc(OC)c(OC)c1)c1ccc(Br)cc1 [Compound 146] | log p: 3.15

Experiment: log p (physical constant of Table 7)
Details: single isomer (E or Z as listed in Table 7)

Compound | log p
CCON=C(C(=O)NCCc1ccc(OC)c(OC)c1)c1ccc2c(c1)CCC2 [Compound 170] | log p: 3.25
CO/N=C(/C(=O)NCCc1ccc(OC)c(OC)c1)c1ccc(C2CCCCC2)cc1 [Compound 171] | log p: 4.03
CCON=C(C(=O)NCCc1ccc(OC)c(OC)c1)c1ccc2c(c1)CCCC2 [Compound 173] | log p: 3.53
